According to paper PMC3472974, “The Bite of the Honeybee: 2-Heptanone Secreted from Honeybee Mandibles during a Bite Acts as a Local Anaesthetic in Insects and Mammals” (PLoS ONE, 2012):
Where two headings read alike, the source gives them in different places.

Assays:
[1] = system: Varroa destructor; assay: Gravitational reflex of Varroa mites after topical application; format: in vivo
Experimental: We tested 2-H on a far smaller arthropod that parasitizes honeybees, the mite, Varroa destructor. When 0.025 µL of 2-H was applied topically to the sternum of mites (n = 10) fixed ventral side up, the gravitational reflex–the rhythmic expansion of the thorax and abdomen [15]–was distorted (Fig. 3d). When the concentration was increased to 0.061 µL, the gravitational reflex completely malfunctioned and the Varroa mites (n = 10) were totally paralysed within 30–40 s (Fig. 3e) with no recovery, even after 12 h of observation. We applied larger concentrations of 2-H to the Varroa mites topically because the mites’ small size made it impossible to inject 2-H into the haemolymph.

[2] = biological target: T1, hNav1.6 channels (Homo sapiens, UniProt Q9UQD0); assay: Patch-clamp (PatchXpress 7000A) on transfected CHO cells, hNav1.6; format: cell-based; conditions: for IC50: CHO cells, n = 6, mean ± SEM, 2-H exposure limited to 3 min, read-out: hNav1.6 IC50 (converted); for times less active than lidocaine: hNav1.6
T1 construct: expressed in transfected cells; host or cells: CHO-K1 (ATCC CCL-61)
Source text: To test whether 2-H can act by blocking VGNaCs, the PatchXpress 7000A was used. Mammalian CHO (Chinese hamster ovary) transfected with ion hNav1.2 and hNav1.6 channels cDNAs (SCN2A and SCN8A genes) were exposed to 2-H under both tonic and phasic conditions. The mammalian CHO-K1 epithelial embryonic cell line (ATCC number CCL-61) from Cricetulus griseus was obtained from ATCC, Manassas, VA. CHO-K1 cells were transfected with either hNav1.2 or hNav1.6 channel cDNA (SCN2A and SCN8A genes, respectively) and were exposed to 2-H under both tonic and phasic conditions.
The effects of 2-H were evaluated on hNav1.2 at 0.73, 1.46, 2.19, and 2.92 mg/mL and on hNav1.6 channels at 0.1, 0.36, 0.73, and 1.46 mg/mL, with each concentration tested in at least six cells (n = 6). Cells were exposed to each concentration of 2-H and measurements of the inward current were obtained within the first 3 min of exposure. […] Since the PatchXpress has open cell chambers where the testing occurs, there is no way to hermetically seal the experiment.
Based on this analysis, we estimated the IC50.

[3] = system: wax moth larvae (WML); assay: GC-MS quantification of 2-H in wax moth larvae bitten by honeybees; format: in vivo, Galleria mellonella; conditions: extracted after full recovery, n = 10
Source text: We measured the 2-H content of the following types of samples: a) isolated honeybee mandibular glands (n = 30); b) wax moth larvae (WML; body weight of around 0.01 g) that had been bitten by honeybees (n = 30) –2-H extracted immediately after paralysis; c) WML that had been bitten by honeybees (n = 10) –2-H extracted after full recovery; d) non-bitten WML (controls, n = 10).
To optimize the detection of 2-H, all samples were 1) treated with liquid nitrogen in order to stop any enzymatic process and ensure complete lyses of cell walls and then 2) extracted with ethanol. The extracts were centrifuged, filtered, and stored at −20°C until analysis.
Chromatographic analyses were carried out on a Hewlett Packard 6890 gas chromatographic model hyphenated to a Hewlett Packard 5973 mass selective detector using electron impact (70 eV) as the ionization source, further equipped with an Agilent 6890 autosampler. An HP 5MS (30 m×0.25 mm; film thickness 0.25 µm) column was used for the separations. Helium was used as the carrier gas (flow 0.8 ml/min). […] Thus, under the above chromatographic conditions, the Rt of 2-H was 8.47 min and the ions monitored at EI (70eV, full scan) were m/z 43, 58, 71, 85, 99 and 114. Quantification, however, was performed at Selected Ion Monitoring (SIM) mode and the ions were monitored at m/z 58 and 71. […]

[4] = no reference given; cited from earlier work
[5] = system: rat; conditions: oral rat; no reference given; cited from earlier work
[6] = system: honeybees; parameters: method as in earlier work; conditions: cited from earlier work

T1 sequence (Q9UQD0 whole entry): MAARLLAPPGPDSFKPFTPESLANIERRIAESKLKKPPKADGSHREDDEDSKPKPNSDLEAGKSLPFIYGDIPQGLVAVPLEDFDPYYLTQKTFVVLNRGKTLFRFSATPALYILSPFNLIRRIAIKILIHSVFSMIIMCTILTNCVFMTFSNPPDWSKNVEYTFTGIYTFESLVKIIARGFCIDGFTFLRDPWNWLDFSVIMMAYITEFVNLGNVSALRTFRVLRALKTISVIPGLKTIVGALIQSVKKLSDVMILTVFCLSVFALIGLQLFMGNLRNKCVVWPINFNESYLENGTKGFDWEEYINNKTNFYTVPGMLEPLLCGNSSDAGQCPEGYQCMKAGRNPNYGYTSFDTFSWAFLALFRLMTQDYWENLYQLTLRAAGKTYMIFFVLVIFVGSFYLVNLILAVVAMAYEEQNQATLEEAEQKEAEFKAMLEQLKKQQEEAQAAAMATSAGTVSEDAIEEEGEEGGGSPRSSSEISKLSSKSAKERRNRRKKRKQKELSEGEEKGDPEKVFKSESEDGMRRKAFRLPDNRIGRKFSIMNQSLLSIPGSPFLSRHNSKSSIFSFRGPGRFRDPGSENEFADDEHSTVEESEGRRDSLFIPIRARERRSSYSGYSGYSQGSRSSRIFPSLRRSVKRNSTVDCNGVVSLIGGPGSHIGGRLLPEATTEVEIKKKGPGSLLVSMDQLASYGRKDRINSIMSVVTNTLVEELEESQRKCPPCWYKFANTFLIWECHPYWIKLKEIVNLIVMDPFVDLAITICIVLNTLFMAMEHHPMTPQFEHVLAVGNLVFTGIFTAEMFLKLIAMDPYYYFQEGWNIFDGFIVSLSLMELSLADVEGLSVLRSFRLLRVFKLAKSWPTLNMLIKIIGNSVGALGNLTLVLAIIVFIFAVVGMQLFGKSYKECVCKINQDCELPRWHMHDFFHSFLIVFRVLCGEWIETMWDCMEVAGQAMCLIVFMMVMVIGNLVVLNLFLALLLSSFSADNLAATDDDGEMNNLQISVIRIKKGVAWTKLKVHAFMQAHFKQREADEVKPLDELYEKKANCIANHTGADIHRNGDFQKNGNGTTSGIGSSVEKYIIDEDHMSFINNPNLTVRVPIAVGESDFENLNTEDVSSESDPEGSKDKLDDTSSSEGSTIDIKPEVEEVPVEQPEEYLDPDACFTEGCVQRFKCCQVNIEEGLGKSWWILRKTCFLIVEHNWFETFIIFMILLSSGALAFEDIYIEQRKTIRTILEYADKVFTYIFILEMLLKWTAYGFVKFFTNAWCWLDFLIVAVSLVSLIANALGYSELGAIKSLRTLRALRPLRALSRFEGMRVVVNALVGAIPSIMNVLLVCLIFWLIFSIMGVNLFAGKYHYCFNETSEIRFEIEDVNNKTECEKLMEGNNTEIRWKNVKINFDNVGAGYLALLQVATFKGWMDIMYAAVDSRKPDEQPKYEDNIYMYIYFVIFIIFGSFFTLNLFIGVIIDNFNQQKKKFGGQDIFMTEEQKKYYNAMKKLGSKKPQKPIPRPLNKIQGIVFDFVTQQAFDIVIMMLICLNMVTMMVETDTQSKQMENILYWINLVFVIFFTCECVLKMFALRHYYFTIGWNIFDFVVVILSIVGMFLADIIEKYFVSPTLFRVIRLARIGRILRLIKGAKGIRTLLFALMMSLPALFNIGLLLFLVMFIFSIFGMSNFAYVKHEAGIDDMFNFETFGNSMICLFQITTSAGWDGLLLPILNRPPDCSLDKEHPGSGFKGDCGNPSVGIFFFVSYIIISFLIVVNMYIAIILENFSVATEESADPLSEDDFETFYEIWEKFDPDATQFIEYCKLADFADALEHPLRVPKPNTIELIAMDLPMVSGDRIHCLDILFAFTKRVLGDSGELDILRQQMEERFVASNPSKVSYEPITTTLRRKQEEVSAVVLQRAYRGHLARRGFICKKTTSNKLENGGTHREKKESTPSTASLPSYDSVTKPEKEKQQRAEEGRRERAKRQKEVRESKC

CCCCCC(C)=O [2-H, 2-heptanone]
effect on gravitational reflex ([1]; 0.025 µL applied topically to the sternum, n = 10): distorted
recovery from paralysis ([1]; 0.061 µL applied topically, 12 h of observation): no recovery
IC50 ([2]; Phasic Experiment): 4.64 mM
IC50 ([2]; Tonic Experiment): 7.18 mM
times less active than lidocaine ([2]; phasic experiments): 7.57 times
times less active than lidocaine ([2]; tonic experiments): 2.82 times
2-H detected in fully-recovered WML [3]: no 2-H
logP [4]: 1.98
acute LD50 [5]: 1670 mg/kg
low concentration easily detectable by honeybees [6]: 4.049 µg/mL
